Target: T1, c-kit kinase enzyme (Homo sapiens, UniProt P10721)
T1 construct: cKIT (6.25 μM) (catalytic domain, N-terminal GST tagged, unphosphorylated)
Experiment: cKIT-Homogeneous Time Resolved Fluorescent (HTRF) Kinase Assay
Format: biochemical
Conditions: read-out: average IC50 value for the inhibition of the c-kit kinase enzyme
Method: cKIT-Homogeneous Time Resolved Fluorescent (HTRF) Kinase Assay:
The purpose of this assay is to measure the inhibition of cKIT enzyme activity (autophosphorylation and phosphorylation of substrate) by small molecule test compounds. The cKIT HTRF assay begins with cKIT-catalyzed phosphorylation of biotinylated peptide Her-2 (N-[…]-C) in the presence of ATP. The cKIT enzyme reaction is comprised of 1 μL of compound in 100% DMSO, 15 μL of 2× substrate mix (50 μM ATP and 2 μM biotinylated Her-2) and 15 μL of 2× cKIT (6.25 μM) (catalytic domain, N-terminal GST tagged, unphosphorylated) in 4 mM DTT all diluted in enzyme buffer (25 mM HEPES pH 7.5, 12.5 mM NaCl, 50 mM MgCl, 0.05% BSA). The reaction incubates for 90 min at room temperature. One-hundred and sixty microliters of detection mixture containing 0.47 μg/mL steptavidin allophycocyanin and 29.7 pM europylated anti-phosphotyrosine Ab (PT66, Perkin Elmer) in HTRF buffer (100 mM Hepes pH 7.5, 100 mM NaCl, 0.1% BSA, 0.05% Tween 20) is then added to stop the reaction by diluting out the enzyme as well as to enable quantitation of phosphorylated Her-2. After 3 h at room temperature, the detection reaction is read in a Packard Discovery™ (model BD1000) plate reader. The wells are excited with coherent […] light and the ratio of delayed ([…] post excitation) emissions at […] (native europium fluorescence) and 665 nm (europium fluorescence transferred to allophycocyanin—an index of substrate phosphorylation) is determined. The proportion of substrate phosphorylated in the kinase reaction in the presence of compound compared with that phosphorylated in the presence of DMSO vehicle alone (HI control) is calculated using the formula: % control (POC)=(cpd−average LO)/(average HI−average LO)*100. Data (consisting of POC and inhibitor concentration in μM) is fitted to a 4-parameter equation (y=A+((B−A)/(1+((x/C)^D))), where A is the minimum y (POC) value, B is the maximum y (POC), C is the x (cpd concentration) at the point of inflection and D is the slope factor) using a Levenburg-Marquardt non-linear regression algorithm.

T1 sequence (P10721 589-937 limits assumed): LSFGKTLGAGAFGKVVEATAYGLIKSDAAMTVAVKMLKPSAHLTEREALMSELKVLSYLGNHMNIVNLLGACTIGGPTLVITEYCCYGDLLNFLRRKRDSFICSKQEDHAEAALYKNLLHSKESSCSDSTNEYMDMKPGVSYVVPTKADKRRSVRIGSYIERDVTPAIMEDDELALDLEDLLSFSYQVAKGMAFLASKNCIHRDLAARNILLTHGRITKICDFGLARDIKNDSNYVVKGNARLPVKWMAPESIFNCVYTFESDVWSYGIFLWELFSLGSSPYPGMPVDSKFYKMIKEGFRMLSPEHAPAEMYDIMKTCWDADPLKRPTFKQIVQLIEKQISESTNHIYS

Row | SMILES | IC50 [µM]
1 | Cc1ccc(NC(=O)c2cccc(C(F)(F)F)c2)cc1C(=O)Nc1cnc(NCCN2CCOCC2)nc1 [Example 2] | ≤ 10
2 | Cc1ccc(NC(=O)Nc2cccc(C(F)(F)F)c2)cc1C(=O)Nc1cncnc1 [Example 88, 1-(4-methyl-3-(pyrimidin-5-ylcarbamoyl)phenyl)-3-(3-(trifluoromethyl)phenyl)urea] | ≤ 10
3 | Cc1ccc(NC(=O)Nc2cccc(C(F)(F)F)c2)cc1C(=O)Nc1cnc(N)nc1 [Example 90, N-(2-amino-5-pyrimidinyl)-2-methyl-5-((((3-(trifluoromethyl)phenyl)amino)carbonyl)amino)benzamide] | ≤ 10
4 | Cc1ccc(NC(=O)c2cc3ccccc3n2C)cc1C(=O)Nc1cnc(Nc2ccc(N3CCN(C)CC3)cc2)nc1 [Example 96, 1-methyl-N-(4-methyl-3-((2-(4-(4-methylpiperazin-1-yl)phenylamino)pyrimidin-5-yl)carbamoyl)phenyl)-1H-indole-2-carboxamide] | ≤ 10
5 | Cc1ccc(NC(=O)c2ccc3ncsc3c2)cc1C(=O)Nc1cnc(N)nc1 [Example 109, N-(3-((2-aminopyrimidin-5-yl)carbamoyl)-4-methylphenyl)benzo[d] thiazole-6-carboxamide] | ≤ 10
6 | Cc1ccc(NC(=O)c2cc(I)ccc2O)cc1C(=O)Nc1cnc(Nc2ccc(N3CCN(C)CC3)cc2)nc1 [Example 112, 2-hydroxy-5-iodo-N-(4-methyl-3-(((2-((4-(4-methyl-1-piperazinyl)phenyl)amino)-5-pyrimidinyl)amino)carbonyl)phenyl) benzamide] | ≤ 10
7 | Cc1ccc(C(=O)NCCC2CCCCC2)cc1C(=O)Nc1ccc(N)nc1 [Example 182, N~3~-(6-amino-3-pyridinyl)-N~1~-(2-cyclohexylethyl)-4-methyl-1,3-benzenedicarboxamide] | ≤ 10
8 | Cc1ccc(C(=O)NCCC2CCCC2)cc1C(=O)Nc1ccc(NC(=O)c2c[nH]cn2)nc1 [Example 206, N~1~-(2-cyclopentylethyl)-N~3~-(6-((1H-imidazol-4-ylcarbonyl)amino)-3-pyridinyl)-4-methyl-1,3-benzenedicarboxamide] | ≤ 10

Next, values leading:

Row | IC50 [µM] | SMILES
9 | ≤ 10 | Cc1ccc(NC(=O)c2cccc(C(F)(F)F)c2)cc1C(=O)Nc1cnc(N)nc1 [Example 1, N-(2-amino-5-pyrimidinyl)-2-methyl-5-(((3-(trifluoromethyl)phenyl)carbonyl)amino)benzamide]
10 | ≤ 10 | Cc1ccc(NC(=O)c2ccc3[nH]ccc3c2)cc1C(=O)Nc1cnc(N)nc1 [Example 110, N-(3-((2-aminopyrimidin-5-yl)carbamoyl)-4-methylphenyl)-1H-indole-5-carboxamide]
11 | ≤ 10 | Cc1ccc(NC(=O)c2ccc(Cl)c(C(F)(F)F)c2)cc1C(=O)Nc1cnc(Nc2ccc(N3CCN(C)CC3)cc2)nc1 [Example 113, 4-chloro-N-(4-methyl-3-(((2-((4-(4-methyl-1-piperazinyl)phenyl)amino)-5-pyrimidinyl)amino)carbonyl)phenyl)-3-(trifluoromethyl) benzamide]
12 | ≤ 10 | Cc1ccc(NC(=O)c2csc(-c3cccs3)n2)cc1C(=O)Nc1cnc(Nc2ccc(N3CCN(C)CC3)cc2)nc1 [Example 141]

Target: T2, Lck kinase enzyme (Homo sapiens, UniProt P06239)
T2 construct: LCK KD GST (225-509); GST
T2 sequence (P06239 225-509): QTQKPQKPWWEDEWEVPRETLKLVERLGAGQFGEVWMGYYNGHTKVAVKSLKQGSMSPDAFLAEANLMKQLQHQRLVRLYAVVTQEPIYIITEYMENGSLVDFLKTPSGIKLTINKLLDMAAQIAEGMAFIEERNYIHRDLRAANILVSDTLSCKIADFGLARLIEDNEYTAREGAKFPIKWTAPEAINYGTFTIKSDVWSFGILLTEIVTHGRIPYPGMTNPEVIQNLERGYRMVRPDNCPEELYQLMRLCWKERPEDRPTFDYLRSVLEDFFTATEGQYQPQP
Experiment: LCK-Homogeneous Time Resolved Fluorescent (HTRF) Kinase Assay
Format: biochemical
Conditions: read-out: average IC50 value for the inhibition of the Lck kinase enzyme
Method: LCK-Homogeneous Time Resolved Fluorescent (HTRF) Kinase Assay:
The LCK HTRF assay begins with LCK in the presence of ATP phosphorylating the biotinylated peptide Gastrin. The reaction incubates for 90 min. To quench the assay detection reagents are added which both stop the reaction by diluting out the enzyme and chelating the metals due to the presence of EDTA. Once the detection reagents are added the assay incubates for 30 min to allow for equilibration of the detection reagents. […] Buffer conditions are as follows: 50 mM HEPES pH 7.5, 50 mM NaCl, 20 mM MgCl, 5 mM MnCl, 2 mM DTT, 0.05% BSA.
The assay is quenched and stopped with 160 μL of detection reagent. Detection reagents are as follows: Buffer made of 50 mM Tris, pH 7.5, 100 mM NaCl, 3 mM EDTA, 0.05% BSA, 0.1% Tween20.
The assay plate is read in either a Discovery or a RubyStar.

Row | IC50 [µM] | SMILES
13 | ≤ 10 | Cc1ccc(NC(=O)Nc2cccc(C(F)(F)F)c2)cc1C(=O)Nc1cncnc1 [Example 88, 1-(4-methyl-3-(pyrimidin-5-ylcarbamoyl)phenyl)-3-(3-(trifluoromethyl)phenyl)urea]
14 | ≤ 10 | Cc1ccc(NC(=O)c2cc3ccccc3n2C)cc1C(=O)Nc1cnc(Nc2ccc(N3CCN(C)CC3)cc2)nc1 [Example 96, 1-methyl-N-(4-methyl-3-((2-(4-(4-methylpiperazin-1-yl)phenylamino)pyrimidin-5-yl)carbamoyl)phenyl)-1H-indole-2-carboxamide]
